The subject of data set [1] is RIN5F (Rat Insulinoma) cells. Nature of the data set: In vitro glucose-dependent insulin secretion (RIN5F cell assay). In kind it is cell-based. To be noted: 16.7-mM glucose load, n = 3, mean ± S.D. The procedure, abridged:
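Rat RIN5F cells were preincubated 40 min in Krebs-Ringer buffer with 1.1 mM glucose and 0.5% BSA, pH 7.4, then exposed to test peptidomimetics for 30 min at 37 °C with 16.7 mM or 0 mM glucose. Supernatant insulin was measured by rat insulin ELISA and normalised to total protein (BCA), as pg/μg.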

For another data set, the target named is DPP IV enzyme (Homo sapiens, UniProt P27487). Description: Stability against DPP IV enzyme. In kind it is in vitro ADME. To be noted: 2 μM, 37° C.; for half-life: read-out: half-life (t1/2) with DPP-IV enzyme.
Data set [2] is described as follows: Stability in human plasma. In kind it is in vitro ADME. To be noted: 2 μM, 37° C.; for half-life: human, plasma, read-out: half-life (t1/2) in human plasma.
Data set [3] in a line: Stability in simulated gastric fluid. To be noted: 2 μM, 37° C.; for % degradation in 24 h when incubated with simulated gastric fluid: pH 1.5, 24 h; for half-life: simulated gi fluid, read-out: half-life (t1/2) in simulated gastric fluid; for half-life / half-life (t1/2) in simulated gastric fluid: pH 1.5. In kind it is in vitro ADME. The method, then: (§1) Reactions were terminated by the addition of TFA/H2O ([…], 10% (v/v)). […] The column was equilibrated with TFA/H20, at a flow rate of 1 mL/min. […] The absorbance was monitored at 206 nm using UV detector and peaks were collected manually prior to ESI-MS analysis.

A short description of data set [4]: Stability in simulated intestinal fluid. In kind it is in vitro ADME. To be noted: 2 μM, 37° C.; for % degradation in 24 h when incubated with simulated intestinal fluid: pH 7.5, 24 h; for half-life: simulated gi fluid, read-out: half-life (t1/2) in simulated intestinal fluid; for half-life / half-life (t1/2) in simulated intestinal fluid: pH 7.5. How it is done: as §1

Data set [5] can be described thus: Stability in liver microsomes. In kind it is in vitro ADME, human. To be noted: 2 μM, 37° C.; for half-life: human, microsomes, read-out: half-life (t1/2) in liver microsomes. How it is done:
as §1
(Microsomes from liver hold many membrane-bound enzymes, among them those of drug oxidation.)

The next data set addresses human GLP-1 receptor (human, UniProt P43220 24-463). Description: cell-based or functional assay.

The source of these data is patent publication US20120264685A1 (priority 2009, published 2012).

Where a SMILES comes first, the peptide text is derived from it. Where no end group is shown, it is not given here. [ ]: non-standard residue; d: D form. ξ: configuration not given here. ξαMeBip(2'-Et,4'-OMe) = CCc1cc(OC)ccc1-c1ccc(CC(C)(N)C(=O)O)cc1; Bip(2'-Et-4'-OMe) = CCc1cc(OC)ccc1-c1ccc(C[C@H](N)C(=O)O)cc1; ξαMePhe(2,6-F2) = CC(N)(Cc1c(F)cccc1F)C(=O)O; αMePhe(2-F) = C[C@](N)(Cc1ccccc1F)C(=O)O; ξαMe(hhPhe) = CC(N)(CCCc1ccccc1)C(=O)O; ξαMePhe(2-F) = CC(N)(Cc1ccccc1F)C(=O)O; αMeD = C[C@](N)(CC(=O)O)C(=O)O; ξhhPhe = NC(CCCc1ccccc1)C(=O)O; ξαMeD = CC(N)(CC(=O)O)C(=O)O; αMeAPPA = not defined here; αMeS = C[C@](N)(CO)C(=O)O; ξαMeP = CC1(C(=O)O)CCCN1; ξαMeS = CC(N)(CO)C(=O)O; Aib = CC(C)(N)C(=O)O Some results are limits rather than exact numbers.

Sequence of DPP IV enzyme (P27487 whole entry, species assumed): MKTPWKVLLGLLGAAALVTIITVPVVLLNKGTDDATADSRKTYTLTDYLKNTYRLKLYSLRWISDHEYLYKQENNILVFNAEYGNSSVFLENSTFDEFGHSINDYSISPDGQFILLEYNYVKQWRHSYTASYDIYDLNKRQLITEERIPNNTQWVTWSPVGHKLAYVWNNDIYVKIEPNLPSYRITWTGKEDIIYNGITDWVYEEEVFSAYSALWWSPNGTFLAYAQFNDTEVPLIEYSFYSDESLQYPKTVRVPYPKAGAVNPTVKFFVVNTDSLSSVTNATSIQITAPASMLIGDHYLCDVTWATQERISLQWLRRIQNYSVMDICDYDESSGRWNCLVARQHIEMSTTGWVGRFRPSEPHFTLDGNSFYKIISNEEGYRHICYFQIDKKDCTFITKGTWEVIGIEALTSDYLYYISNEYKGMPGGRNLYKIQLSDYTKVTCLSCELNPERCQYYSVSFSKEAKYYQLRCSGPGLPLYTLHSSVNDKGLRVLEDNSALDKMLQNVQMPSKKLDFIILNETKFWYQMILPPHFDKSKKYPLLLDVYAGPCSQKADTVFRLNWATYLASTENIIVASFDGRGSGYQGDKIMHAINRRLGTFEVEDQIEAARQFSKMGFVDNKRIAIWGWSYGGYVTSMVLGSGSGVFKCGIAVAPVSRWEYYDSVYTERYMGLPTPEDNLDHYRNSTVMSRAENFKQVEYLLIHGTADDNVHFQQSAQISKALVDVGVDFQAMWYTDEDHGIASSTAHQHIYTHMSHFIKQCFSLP

Turning to `CCc1cc(OC)ccc1-c1ccc(CC(C)(NC(=O)[C@H](CC(=O)O)NC(=O)C(C)(CO)NC(=O)[C@@H](NC(=O)C(C)(Cc2c(F)cccc2F)NC(=O)[C@@H](NC(=O)CNC(=O)[C@H](CCC(=O)O)NC(=O)[C@H](C)NC(=O)[C@H](Cc2c[nH]cn2)NC(=O)[C@@H](N)C(C)C)[C@@H](C)O)[C@@H](C)O)C(=O)NC(C)(CCCc2ccccc2)C(N)=O)cc1` (stereo partly drawn) [compound 178] (H-VHAEGT[ξαMePhe(2,6-F2)]T[ξαMeS]D[ξαMeBip(2'-Et,4'-OMe)][ξαMe(hhPhe)]-NH2), the figures for the “Insulin secretion” value in data set [1] (0.1 nM test compd.), in data set [1] (1 nM test compd.) and in data set [1] (10 nM test compd.) were 17.1 ± 0.11 pg/µg/h, 23.1 ± 0.16 pg/µg/h and 37.0 ± 0.29 pg/µg/h, respectively. Besides, on DPP IV enzyme, the “% degradation in 24 h when incubated with DPP-IV enzyme” value (shortened to “% degradation … with DPP-IV enzyme”) was determined as 00%. In addition, the half-life at DPP IV enzyme was greater than 24 h; in data set [2], greater than 24 h; in data set [3], 4 h; in data set [4] it was greater than 24 h; in data set [5], 2 h. For the same molecule, the “% degradation in 24 h when incubated with human plasma” value (from here on “% degradation … with human plasma”) in data set [2] was found to be 00%. Besides, the “% degradation in 24 h when incubated with simulated gastric fluid” value (“% degradation … with simulated gastric fluid” below) in data set [3] is 43%. Further, in data set [4], the “% degradation in 24 h when incubated with simulated intestinal fluid” value (from here on “% degradation … with simulated intestinal fluid”) is given as 00%. The “% degradation in 24 h when incubated with liver microsomes” value (from here on “% degradation … with liver microsomes”) in data set [5] came out at 84%.
`CCc1cc(OC)ccc1-c1ccc(CC(C)(NC(=O)C(C)(CC(=O)O)NC(=O)[C@H](CO)NC(=O)[C@@H](NC(=O)[C@H](Cc2ccccc2)NC(=O)[C@@H](NC(=O)CNC(=O)[C@H](CCC(=O)O)NC(=O)C2(C)CCCN2C(=O)[C@H](Cc2c[nH]cn2)NC(=O)[C@@H](N)C(C)C)[C@@H](C)O)[C@@H](C)O)C(=O)NC(C)(CCCc2ccccc2)C(N)=O)cc1` (stereo partly drawn) [compound 188] (H-VH[ξαMeP]EGTFTS[ξαMeD][ξαMeBip(2'-Et,4'-OMe)][ξαMe(hhPhe)]-NH2): the “Insulin secretion” value in data set [1] (0.1 nM test compd.) stood at 12.9 ± 0.14 pg/µg/h; in data set [1] (1 nM test compd.) it was 15.8 ± 0.13 pg/µg/h; in data set [1] (10 nM test compd.), 29.9 ± 0.15 pg/µg/h. In addition, the “% degradation … with DPP-IV enzyme” value on DPP IV enzyme came to 00%. For the same molecule, the half-life is greater than 24 h at DPP IV enzyme; greater than 24 h in data set [2]; 4 h in data set [3]; greater than 24 h in data set [4]; 2 h in data set [5]. The “% degradation … with human plasma” value in data set [2] is 00%. Moreover, in data set [3], the “% degradation … with simulated gastric fluid” value was 41%. In data set [4], the “% degradation … with simulated intestinal fluid” value is 00%. The “% degradation … with liver microsomes” value in data set [5] is reported as 80%.
With `CCc1cc(OC)ccc1-c1ccc(CC(C)(NC(=O)C(C)(CC(=O)O)NC(=O)[C@H](CO)NC(=O)[C@@H](NC(=O)C(C)(Cc2ccccc2F)NC(=O)[C@@H](NC(=O)CNC(=O)[C@H](CCC(N)=O)NC(=O)C(C)(C)NC(=O)[C@H](Cc2c[nH]cn2)NC(=O)[C@@H](N)C(C)C)[C@@H](C)O)[C@@H](C)O)C(=O)NC(C)(CCCc2ccccc2)C(N)=O)cc1` (stereo partly drawn) [compound 191] (H-VH[Aib]QGT[ξαMePhe(2-F)]TS[ξαMeD][ξαMeBip(2'-Et,4'-OMe)][ξαMe(hhPhe)]-NH2), the “Insulin secretion” value in data set [1] (0.1 nM test compd.) was determined as 16.1 ± 0.22 pg/µg/h. In data set [1] (1 nM test compd.), the “Insulin secretion” value stood at 22.1 ± 0.26 pg/µg/h. Moreover, in data set [1] (10 nM test compd.), the “Insulin secretion” value was found to be 36.0 ± 0.36 pg/µg/h. Further, at DPP IV enzyme, the “% degradation … with DPP-IV enzyme” value is listed as 76% and the half-life is 9 h. In data set [2], the “% degradation … with human plasma” value turned out to be 78% and the half-life was 8 h. Besides, in data set [3], the “half-life (t1/2) in simulated gastric fluid” value is reported as “(8) h” and the “% degradation … with simulated gastric fluid” value is reported as 12%. In addition, in data set [4], the “half-life (t1/2) in simulated intestinal fluid” value was “(6) h” and the “% degradation … with simulated intestinal fluid” value is 55%. Moreover, in data set [5], the “% degradation … with liver microsomes” value came out at 79% and the half-life is 1 h.
Regarding `CCc1cc(OC)ccc1-c1ccc(CC(C)(NC(=O)C(C)(CC(=O)O)NC(=O)[C@H](CO)NC(=O)[C@@H](NC(=O)C(C)(Cc2c(F)cccc2F)NC(=O)[C@@H](NC(=O)CNC(=O)[C@H](CCC(=O)O)NC(=O)[C@H](CO)NC(=O)[C@H](Cc2c[nH]cn2)NC(=O)[C@@H](N)C(C)C)[C@@H](C)O)[C@@H](C)O)C(=O)NC(C)(CCCc2ccccc2)C(N)=O)cc1` (stereo partly drawn) [compound 201] (H-VHSEGT[ξαMePhe(2,6-F2)]TS[ξαMeD][ξαMeBip(2'-Et,4'-OMe)][ξαMe(hhPhe)]-NH2), in data set [1] (0.1 nM test compd.), the “Insulin secretion” value is 15.4 ± 0.14 pg/µg/h. In data set [1] (1 nM test compd.), the “Insulin secretion” value was 21.2 ± 0.18 pg/µg/h. Moreover, the “Insulin secretion” value in data set [1] (10 nM test compd.) is 35.6 ± 0.17 pg/µg/h. For the same molecule, at DPP IV enzyme, the “% degradation … with DPP-IV enzyme” value stood at 75% and the half-life came to 9 h. In data set [2], the “% degradation … with human plasma” value is 77% and the half-life stood at 8 h. In data set [3], the “half-life (t1/2) in simulated gastric fluid” value is recorded as “(8) h” and the “% degradation … with simulated gastric fluid” value is recorded as 14%. In data set [4], the “half-life (t1/2) in simulated intestinal fluid” value is “(6) h” and the “% degradation … with simulated intestinal fluid” value is given as 45%. Moreover, in data set [5], the “% degradation … with liver microsomes” value amounted to 81% and the half-life was 1 h.
As to `CCc1cc(OC)ccc1-c1ccc(CC(C)(NC(=O)[C@H](CC(=O)O)NC(=O)[C@H](CO)NC(=O)[C@@H](NC(=O)[C@H](Cc2ccccc2)NC(=O)[C@@H](NC(=O)CNC(=O)[C@H](CCC(N)=O)NC(=O)[C@H](CO)NC(=O)[C@H](Cc2c[nH]cn2)NC(=O)[C@@H](NC(=O)[C@@H](N)C(C)C)C(C)C)[C@@H](C)O)[C@@H](C)O)C(=O)NC(CCCc2ccccc2)C(N)=O)cc1` (stereo partly drawn) [compound 205] (H-VVHSQGTFTSD[ξαMeBip(2'-Et,4'-OMe)][ξhhPhe]-NH2), the entries for the “Insulin secretion” value in data set [1] (0.1 nM test compd.), in data set [1] (1 nM test compd.) and in data set [1] (10 nM test compd.) were 12.6 ± 0.25 pg/µg/h, 15.3 ± 0.31 pg/µg/h and 29.7 ± 0.48 pg/µg/h, respectively. Moreover, the “% degradation … with DPP-IV enzyme” value on DPP IV enzyme stood at 00%. Moreover, the half-life at DPP IV enzyme was greater than 24 h; in data set [2] it was greater than 24 h; in data set [3], 4 h; in data set [4], greater than 24 h; in data set [5], 2 h. Also, the “% degradation … with human plasma” value in data set [2] was found to be 00%. For the same molecule, the “% degradation … with simulated gastric fluid” value in data set [3] is 43%. In addition, in data set [4], the “% degradation … with simulated intestinal fluid” value is 00%. For the same molecule, the “% degradation … with liver microsomes” value in data set [5] was 84%.

B1: Seq. ID. No. 121 (peptide)
peptide: VH[Aib]EGT[αMePhe(2-F)]T[αMeS][αMeD][Bip(2'-Et-4'-OMe)][αMeAPPA]
modifications: not fully specified (C-terminus); reading uncertain
For B1, the “EC50, in-vitro human GLP-1 receptor agonistic activity (cAMP)” value with human GLP-1 receptor turned out to be 8 nM.
